The values below are quoted from earlier work in paper PMC11768433 (Viruses, 2024).

Read-outs that look alike come from different tables or passages of the source.

For one data set, the system named is HSV-1. The arrangement: method as in Ref.35216177. The following applies: HSV-1 replication, Vero cells; ref Ref.35216177.
The next data set relates to SARS-CoV-2. The arrangement: method as in Ref.35216177. The note with it: SARS-CoV-2 replication, Vero cells; ref Ref.35216177.
For data set [1], the system named is influenza virus(H1N1,VR-1894). The arrangement: method as in Ref.35216177. The note with it: influenza H1N1 VR-1894 replication, MDKC cells; ref Ref.35216177.
Data set [2] deals with Vero cells. The arrangement: method as in Ref.35216177. The following applies: ref Ref.35216177.
For the next data set, the system named is HSV-2. The arrangement: method as in Ref.35216177. The note with it: HSV-2 replication, Vero cells; ref Ref.35216177.
The next data set deals with HCoV-229E. On the set-up: method as in Ref.35216177. The note with it: HCoV-229E replication, Vero cells; ref Ref.35216177.
For the next data set, the system named is HCoV-OC43. On the set-up: method as in Ref.35216177. The note with it: HCoV-OC43 replication, Vero cells; ref Ref.35216177.
The subject of a further data set is TZM-bl cell. On the set-up: method as in Ref.30089693. The note with it: ref Ref.30089693.
The next data set concerns PBMC. The note with it: PBMC; ref Ref.30089693.
For the next data set, the system named is P4-CCR5 cells. On the set-up: method as in Ref.17448989. The following applies: up to 1000 µM, ref Ref.17448989.
A further data set has as its system P4 cells. The arrangement: method as in Ref.12054767. The following applies: MTT assay, peptide concentrations higher than 100 μM, ref Ref.12054767.
Data set [3] relates to Feline immunodeficiency virus (FIV). The note with it: FIV replication, CrFK cells, at 16 µg/ml; ref Ref.8661378.
Data set [4] deals with Human parainfluenza viruse 3(HPIV 3). The arrangement: method as in Ref.28344321. The following applies: HPIV 3 infection, Vero cells; ref Ref.28344321.
In data set [5] the test system is Vero cells. On the set-up: method as in Ref.28344321. The note with it: ref Ref.28344321.

For the substance “CFVPWFSKFlXRIL [DRAVPe00391, DRAVP database entry, TL peptide]”, the IC90 was 2.19 µM in the data set with HSV-1, 1.89 µM in the data set on SARS-CoV-2 and 5.89 µM in data set [1]. Further, the CC50 result in the data set on Vero cells [2] is “[Ref.35216177]Vero cells:CC50>100.00 μM”.

“CGGFVPWFSKFlXRIL [DRAVPe00392, DRAVP database entry, TL peptide]”: the IC90 with HSV-1 was 8.21 µM; in the data set with SARS-CoV-2, 10.2 µM; in [1], 9.9 µM. Further, in the data set on Vero cells [2], the CC50 result is “[Ref.35216177]Vero cells:CC50>100.00 μM”.

With “FVPWFSKFlGRIL [DRAVPe00377, DRAVP database entry, TL peptide]”, the concentration for an effect of 90% (IC90) in the data set with HSV-1 was 18.7 µM; in the data set with HSV-2, 16.7 µM; in the data set with SARS-CoV-2, 12.1 µM; in the data set on HCoV-229E, 30.1 µM; with HCoV-OC43, 15 µM. Further, the CC50 with Vero cells [2] is 42.18 µM.

For the substance “FVPWFSKFlPRIL [DRAVPe00378, DRAVP database entry, TL peptide]”, the 90% effect concentration (IC90) with HSV-1 was 18.8 µM; in the data set on HSV-2 it was 19.2 µM; in the data set with SARS-CoV-2, 14 µM; with HCoV-OC43 it was 24.1 µM. Also, the CC50 in the data set on Vero cells [2] is 56.52 µM.

On to “FVPWFSKFlWRIL [DRAVPe00385, DRAVP database entry, TL peptide]”, for which the concentration for an effect of 90% (IC90) in the data set with HSV-1 is 8.25 µM; with HSV-2 it was 12.5 µM; with SARS-CoV-2, 27.7 µM; in the data set on HCoV-229E, 50 µM; in the data set on HCoV-OC43, 24.2 µM. Besides, in the data set with Vero cells [2], the CC50 was 35.47 µM.

For “FVPWFSKFlXRIL [DRAVPe00380, DRAVP database entry, TL peptide]”, the 90% effect concentration (IC90) in the data set on HSV-1 is 15.9 µM; in the data set on HSV-2, 19 µM; in the data set on SARS-CoV-2, 25 µM; in the data set on HCoV-229E, greater than 50 µM; in the data set on HCoV-OC43 it was 27.7 µM. Moreover, in the data set on Vero cells [2], the CC50 is 60.90 µM.

Turning to “FVPWFSKFlXRIL [DRAVPe00396, DRAVP database entry, TL peptide]”, the IC90 with HSV-1 is 4.96 µM; in the data set on SARS-CoV-2, 6.96 µM; in data set [1] it was 7.11 µM. For the same substance, the CC50 entry with Vero cells [2] is “[Ref.35216177]Vero cells:CC50>100.00 μM”.

As to “FVPWFSKFlXRILC [DRAVPe00389, DRAVP database entry, TL peptide]”, the 90% effect concentration (IC90) in the data set with HSV-1 is 11.1 µM; in the data set on SARS-CoV-2 it was 12 µM; in data set [1] it was 10 µM. The CC50 result in the data set with Vero cells [2] was “[Ref.35216177]Vero cells:CC50>100.00 μM”.

Regarding “FVPWFSKFlXRILGGC [DRAVPe00390, DRAVP database entry, TL peptide]”, the 90% effect concentration (IC90) was 48 µM in the data set with HSV-1, 50 µM in the data set with SARS-CoV-2 and 49.9 µM in [1]. Moreover, the CC50 entry in the data set on Vero cells [2] is “[Ref.35216177]Vero cells:CC50>100.00 μM”.

For the substance “FVPWFSKFlpRIL [DRAVPe00379, DRAVP database entry, TL peptide]”, the CC50 entry with Vero cells [2] was “[Ref.35216177]Vero cells:CC50>100 μM”.

For the substance “FVPWFSKFlwRIL [DRAVPe00386, DRAVP database entry, TL peptide]”, the concentration for an effect of 90% (IC90) was 7.89 µM with HSV-1; 9.76 µM with HSV-2; 14.8 µM in the data set on SARS-CoV-2; 50 µM with HCoV-229E; 17.4 µM with HCoV-OC43. Besides, in the data set on Vero cells [2], the CC50 is 24.12 µM.

In the case of “FVPWFSKFlxRIL [DRAVPe00382, DRAVP database entry, TL peptide]”, the IC90 is 12.8 µM in the data set on HSV-1; 11.9 µM in the data set with HSV-2; 17.4 µM in the data set with SARS-CoV-2; greater than 50 µM in the data set on HCoV-229E; 24.7 µM with HCoV-OC43. The CC50 in the data set on Vero cells [2] was 32.16 µM.

As to “FVQWFSKFLGRIL [DRAVPe00376, DRAVP database entry, TL peptide]”, the IC90 with HSV-1 was 15.7 µM; in the data set with HSV-2 it was 16 µM. Moreover, the CC50 with Vero cells [2] was 19.61 µM.

Regarding IEELLKKAEEQQKKNEEELKKLEX [DRAVPe00660], the CC50 is 256.23 µM with TZM-bl cell and 49.95 ± 2.97 µM with PBMC.

With KVINPEPIVEPFMSKPFALF [DRAVPe00230], in the data set on P4-CCR5 cells, the “cytotoxicity” value was “[Ref.17448989]No cytotoxicity against P4-CCR5 cells up tp 1000 µM”.

For the substance LEAIPCSIPPCFAFNKPFVF [DRAVPe00222], the “cytotoxicity” value with P4-CCR5 cells was “[Ref.17448989]No cytotoxicity against P4-CCR5 cells up tp 1000 µM”.

Take LEAIPCSIPPCVFFNKPFVF [DRAVPe00221]: in the data set on P4-CCR5 cells, the “cytotoxicity” value was “[Ref.17448989]No cytotoxicity against P4-CCR5 cells up tp 1000 µM”.

As to LEAIPCSIPpCFLFNKPFVF [DRAVPe00227], the “cytotoxicity” value in the data set with P4-CCR5 cells is “[Ref.17448989]No cytotoxicity against P4-CCR5 cells up tp 1000 µM”.

For LEAIPMGIPpEVXFNKPFVF [DRAVPe00228], the “cytotoxicity” value in the data set on P4-CCR5 cells is “[Ref.17448989]No cytotoxicity against P4-CCR5 cells up tp 1000 µM”.

With LEAIPMSIPPEFLFGKPFVF [DRAVPe00223], in the data set on P4-CCR5 cells, the “cytotoxicity” value is “[Ref.17448989]No cytotoxicity against P4-CCR5 cells up tp 1000 µM”.

On to LEAIPMSIPPEVKFNKPFVF [DRAVPe00192], for which the “cytotoxicity” value in the data set with P4-CCR5 cells was “[Ref.17448989]No cytotoxicity against P4-CCR5 cells up tp 1000 µM”.

Turning to “LEANIEELLKKAEEQQKKNEEELKKLEX [DRAVPe00784]”, the figures for the CC50 with TZM-bl cell and in the data set with PBMC were 434.03 µM and 46.83 µM, respectively.

In the case of “LFYLVPGPGH [DRAVPe00094, DRAVP database peptide, target HIV-1 integrase]”, in the data set on P4 cells, the “decrease of cell viability” value is listed as roughly 5%.

In the case of “LKAKTNISIREGPTLGNWAR [DRAVPe00841, DRAVP database peptide, target FIV]”, the inhibition in [3] is 24%.

Take “LSELDDRADALQAGASQFETSAAKLKRKYWWKN [DRAVPe00111, DRAVP database peptide, target HIV-1 integrase]”: in the data set on P4 cells, the “decrease of cell viability” value is reported as roughly 5%.

As to “PACQDFLGAMIHLKAKTNISIR [DRAVPe00840, DRAVP database peptide, target FIV]”, the inhibition in data set [3] is 28%.

In the case of “QLLIRMIYKNI [DRAVPe00109, DRAVP database peptide, target HIV-1 integrase]”, in the data set on P4 cells, the “decrease of cell viability” value is given as roughly 5%.

Turning to “QLLIRMIYKNILFYLVPGPGHGAEPERRNIKYL [DRAVPe00090, DRAVP database peptide, target HIV-1 integrase]”, the “decrease of cell viability” value in the data set with P4 cells is reported as roughly 5%.

Turning to “VALDPIDIAnti-SIVLNKAKSDLEESKEWIRRSNGKLDSIGSGSGC [DRAVPe01791]”, in [4], the IC90 was 0.28 ± 0.247 µM. The CC50 entry in the data set on Vero cells [5] is “[Ref.28344321]Vero cells: CC50>10000 nM”.

“VALDPIDIAnti-SIVLNKAKSDLEESKEWIRRSNGKLDSIGSGSGX [DRAVPe01793]”: the IC90 in data set [4] was 0.0007 ± 7e-06 µM. The CC50 in the data set on Vero cells [5] is 4.5 µM.

As to “WEQKIEELLKKAEEQQKKNEEELKKLEX [DRAVPe00785]”, the CC50 with TZM-bl cell was 112.9 µM; in the data set on PBMC it was 114.8 µM.

For the substance “YLDRVDTWLQGKINISLCLT [DRAVPe00846, DRAVP database peptide, target FIV]”, the inhibition in [3] is 9%.

For “YQALIRMIYKNI [DRAVPe00097, DRAVP database peptide, target HIV-1 integrase]”, the “decrease of cell viability” value with P4 cells is reported as roughly 5%.

For “YQLAIRMIYKNI [DRAVPe00098, DRAVP database peptide, target HIV-1 integrase]”, the “decrease of cell viability” value with P4 cells is listed as roughly 5%.

With “YQLLIRMIYANI [DRAVPe00104, DRAVP database peptide, target HIV-1 integrase]”, the “decrease of cell viability” value in the data set with P4 cells is on record as roughly 5%.

Take “YQLLIRPIYKNI [DRAVPe00110, DRAVP database peptide, target HIV-1 integrase]”: in the data set with P4 cells, the “decrease of cell viability” value is reported as roughly 5%.
